How the values were obtained:
recombinant human PDE9 = system: recombinant human PDE9; set-up: method as in PMID 25555060, PMID 21766240; details: cited from earlier work
PDEβ = molecular target: T1, PDEβ (Plasmodium falciparum, UniProt Q8I6Z7); assay: cAMP hydrolysis SPA in schizont membrane lysates; format: biochemical; details: read-out: IC50 against PDEβ
T1 construct: endogenous in cells; host or cells: P. falciparum 3D7 schizonts, NP-40 membrane lysate
Text: We identified three PDE inhibitor chemical series generated by Pfizer, with structures in the public domain, which have activity against malaria parasites (see the “Chemistry strategy summary” section). These series were originally designed to inhibit human PDEs and were chosen as chemistry start points to optimize activity against malaria parasites. More than 400 new analogs were generated (full details of their properties will be reported in a separate paper, in preparation) through iterative rounds of synthesis and testing. The chemistry start points for each of the series were SAL-0010042 (5-benzyl), SAL-0010043 (5-aryl), and SAL-0010034 (2-alkyl) (see Materials and Methods and fig. S1A). S2. Analytical data for these compounds are provided in data S1. All newly synthesized compounds were tested for inhibition of native cAMP-PDE activity in mature schizont crude membrane preparations and inhibition of P. falciparum ABS growth. S3A. […] The unbound EC50 values for the compounds in the parasite growth inhibition assay were consistently calculated to be sevenfold higher than the IC50 values in the biochemical assay. Given that PDEβ is dual specific (i.e., can hydrolyze both cAMP and cGMP), we also determined IC50 values for cGMP hydrolysis. […] The IC50 values measured for cGMP hydrolysis in blood-stage schizonts were generally similar to those for cAMP hydrolysis (Table 1). […]
The cyclic nucleotide hydrolytic activity of membrane-associated parasite PDE enzymes was measured by a scintillation proximity assay (SPA) ([18]) using lysates of mature P. falciparum schizonts or stage IV/V gametocytes. […] The IC50 values for the compounds were determined using threefold serial dilutions in duplicate. […] The reactions were terminated by addition of 25 μl of PDE SPA beads (PerkinElmer, RPNQ0150), and after 20 min of incubation at room temperature, scintillation was measured using a Wallac 1450 Microbeta Counter (PerkinElmer) for 30 s. […]

P. falciparum ABS = details: read-out: EC50 P. falciparum ABS growth inhibition; cited from earlier work
[1] = system: P. falciparum stage IV/V gametocytes; assay: LDH-based gametocyte viability assay; format: cell-based, Plasmodium falciparum; details: stage IV to V gametocytes
Experimental: The pLDH assay was performed on late (>95% stage IV/V) gametocytes. Compound dilutions were placed in triplicate in 96-well plates in a final volume of 100 μl per well. DHA and MMV048 were used as positive drug controls. The gametocyte cultures (100 μl per well) were added to the 96-well plates to achieve a final gametocytemia and hematocrit of 2 and 1%, respectively, in a total incubation volume of 200 μl. Plates were incubated at 37°C for 72 hours, followed by the replacement of spent medium with drug-free culture medium (75% medium change) ([54], [55]). Plates were then incubated for a further 72 hours before assessing viability by measuring pLDH activity. Gametocyte viability was determined spectrophotometrically by measuring the activity of pLDH, according to a modified version of a published protocol ([56]). Briefly, 100 μl of Malstat reagent [0.21% (v/v) Triton X-100, 222 mM L-(+)-lactic acid, 54.5 mM tris, 0.166 mM APAD (Sigma-Aldrich, A5251), adjusted to pH 9 with 1 M NaOH] was transferred into a clean 96-well plate. A fixed volume of 20 μl of parasite suspension per well was added to the Malstat plate, followed by the addition of 25 μl of PES/NBT (0.239 mM phenazine ethosulfate and 1.96 mM nitro blue tetrazolium chloride). Absorbance was measured with a Multiskan Ascent 354 multiplate scanner (Thermo LabSystems, Finland) at 620 nm.

human PDE5A1 = molecular target: T2, human PDE5A1 (Homo sapiens, UniProt O76074); assay: Human PDE5 selectivity SPA; format: biochemical; details: IC50 PDE5A1 / IC50 PDEβ schizont lysates
T2 construct: GST (glutathione S-transferase); purchased BPS Bioscience BPS-60050
Experimental: (§1) The selectivity of the compounds on the parasite PDEs over the two human isoforms PDE5A1 and PDE6C was measured through a dose-response assay of their hydrolytic activity in presence of the compounds. Similarly to the parasite lysates, an SPA was carried out with the recombinant purified human glutathione S-transferase–tagged PDE5A1 or PDE6C (BPS Bioscience, BPS-60050 and BPS-60062) prepared in PDE assay buffer [10 mM tris-HCl (pH 7.4), 10 mM MgCl2, bovine serum albumin (0.1 mg/ml), and 0.05% Tween 20] at a concentration of 648 pg of enzyme per 50 μl of total volume per well. To determine the IC50 of the compounds, threefold serial dilutions in duplicate were performed. Briefly, the assays were carried out in flexible 96-well plates (PerkinElmer, 1450-401) by incubating the enzyme with the compounds and 5 μl of 200 nM cGMP dilution [[^3H]-cNMP tracer (PerkinElmer, cGMP-NET337250UC) in PDE assay buffer] to a total volume of 50 μl for 45 min at 37°C. The reactions were terminated by addition of 25 μl of PDE SPA beads (PerkinElmer, RPNQ0150), and after 20 min of incubation at room temperature, scintillation was measured using a Wallac 1450 Microbeta Counter (PerkinElmer) for 30 s. […] The selectivity of the compounds was expressed as the fold change in the IC50 obtained for PDE5A1 or PDE6C and the IC50 for the P. falciparum PDEβ schizont lysates.

[2] = system: P. falciparum stage V gametocytes (male gamete formation); assay: Exflagellation (male gamete formation) inhibition assay; format: cell-based, Plasmodium falciparum; details: 2 μM, 48 hours
Experimental: The exflagellation inhibition assay was performed by capturing movement of exflagellation centers over time by video microscopy [adapted from a reported protocol ([52])]. For this carry-over format, mature stage V gametocytes were treated with 2 μM of each compound for 48 hours before induction of exflagellation in the presence of compound. To evaluate compound dose response, gametocytes were treated similarly at a set of concentrations representing a fourfold serial dilution. Mature gametocyte cultures (>95% stage V; 500 μl) were centrifuged at 3500 rpm for 30 s, and the pellet was resuspended in 30 μl of ookinete medium [RPMI 1640 medium containing L-glutamine (Sigma-Aldrich, R6504), gentamycin (0.024 mg/ml; HyClone, SV30080.01), 202 μM hypoxanthine (Sigma-Aldrich, H9636), 25 mM Hepes (Sigma-Aldrich, H4034), 0.2% glucose (Sigma-Aldrich, G6152), and 0.5% (w/v) AlbuMAX II (Invitrogen, Paisley, UK), supplemented with 100 μM XA and 20% human serum]. The activated culture (10 μl) was introduced into a Neubauer chamber and placed on the microscope platform to settle homogenously. Time was noted as time zero (T0), and the chamber was incubated at room temperature. Movement was recorded by video microscopy using a Carl Zeiss NT 6V/10W Stab microscope, fitted with a MicroCapture camera at 10× magnification, and then quantified by a semiautomated method, a modification of the method described previously ([53]). A series of 15 videos of 8 to 10 s each were captured at random locations between 15 and 22.5 min after incubation. Each video was analyzed using Icy bioimage analysis software to quantify the number of exflagellating centers. Compound IC50 values were determined with nonlinear curve fitting (GraphPad Prism 6), normalized to maximum and minimum inhibition.

[3] = system: P. falciparum stage V gametocytes (female gamete formation); assay: Female gamete formation inhibition assay; format: cell-based, Plasmodium falciparum; details: 2 μM, 48 hours
Experimental: Mature gametocytes (>95% stage V) were treated with compounds (2 μM) for 48 hours before stimulating female gamete formation. To evaluate compound dose response, gametocytes were treated similarly at set concentrations representing a fourfold serial dilution. Female gamete activation was induced by both a temperature drop and the addition of 100 μM XA. Monoclonal anti-Pfs25 antibody (BEI Resources, catalog number MRA-28; 1:1000 dilution) conjugated to fluorescein isothiocyanate was used to detect female gametes. Image acquisition was performed using a Zeiss Axio Lab.A1 epifluorescence microscope with a 100/1.4 numerical aperture oil immersion objective and a Zeiss Axiocam 202 mono digital camera. Using a 100× objective, 30 images were taken per sample and analyzed manually. The number, size, roundness, and intensity of fluorescence of activated female gametocytes were evaluated. Compound IC50 values were determined with nonlinear curve fitting (GraphPad Prism 6), normalized to maximum and minimum inhibition.

PDE6 = system: PDE6; set-up: method as in PMID 29743944; details: cited from earlier work
P. falciparum 3D7 = P. falciparum 3D7 LDH growth inhibition assay (asexual blood stage); format: cell-based, Plasmodium falciparum; details: Plasmodium falciparum, 3D7, read-out: EC50 against ABS parasites
Experimental: P. falciparum isolates (3D7/Dd2) were obtained from BEI Resources and were cultured using standard procedures as described elsewhere ([47]). Briefly, P. falciparum was grown in RPMI 1640 medium (10.3 g/liter) supplemented with L-glutamine (2 mM), hypoxanthine (150 μM), Hepes (25 mM), D-glucose (12 mM), sodium bicarbonate (25.7 mM), AlbuMAX II (0.5% or 5 g/liter) (pH 7.4), and 2% RBC (type O+, freshly prepared). Cultures were replenished with fresh medium and RBCs every other day. For RBC preparation, whole blood was centrifuged at 415g at room temperature for 12 min. After that, the plasma and buffy coat were removed, and packed RBCs were washed three times with 3 vol of RPMI 1640. Last, RBCs were resuspended in 1:1 vol of complete RPMI 1640 medium (containing 0.5% AlbuMAX II).
The P. falciparum 3D7 and Dd2 LDH growth inhibition assay was carried out as described elsewhere ([48]) with minor modification of the parasitological conditions (10 to 15% parasitemia with ≥80% rings). Data were normalized to percent growth inhibition with respect to […] (for 3D7, a mixture of 100 nM chloroquine and 100 nM atovaquone as 100% inhibition; for Dd2, a mixture of 200 nM DHA and 200 nM atovaquone as 100% inhibition) controls.

malaria parasites = system: malaria parasites; set-up: method as in PMID 25951195, PMID 33262483; details: cited from earlier work
human PDE6C = molecular target: T3, human PDE6C (Homo sapiens, UniProt P51160); assay: Human PDE6 selectivity SPA; format: biochemical; details: IC50 PDE6C / IC50 PDEβ schizont lysates
T3 construct: GST (glutathione S-transferase); purchased BPS Bioscience BPS-60062
Experimental: as §1

T1 sequence (Q8I6Z7 whole entry): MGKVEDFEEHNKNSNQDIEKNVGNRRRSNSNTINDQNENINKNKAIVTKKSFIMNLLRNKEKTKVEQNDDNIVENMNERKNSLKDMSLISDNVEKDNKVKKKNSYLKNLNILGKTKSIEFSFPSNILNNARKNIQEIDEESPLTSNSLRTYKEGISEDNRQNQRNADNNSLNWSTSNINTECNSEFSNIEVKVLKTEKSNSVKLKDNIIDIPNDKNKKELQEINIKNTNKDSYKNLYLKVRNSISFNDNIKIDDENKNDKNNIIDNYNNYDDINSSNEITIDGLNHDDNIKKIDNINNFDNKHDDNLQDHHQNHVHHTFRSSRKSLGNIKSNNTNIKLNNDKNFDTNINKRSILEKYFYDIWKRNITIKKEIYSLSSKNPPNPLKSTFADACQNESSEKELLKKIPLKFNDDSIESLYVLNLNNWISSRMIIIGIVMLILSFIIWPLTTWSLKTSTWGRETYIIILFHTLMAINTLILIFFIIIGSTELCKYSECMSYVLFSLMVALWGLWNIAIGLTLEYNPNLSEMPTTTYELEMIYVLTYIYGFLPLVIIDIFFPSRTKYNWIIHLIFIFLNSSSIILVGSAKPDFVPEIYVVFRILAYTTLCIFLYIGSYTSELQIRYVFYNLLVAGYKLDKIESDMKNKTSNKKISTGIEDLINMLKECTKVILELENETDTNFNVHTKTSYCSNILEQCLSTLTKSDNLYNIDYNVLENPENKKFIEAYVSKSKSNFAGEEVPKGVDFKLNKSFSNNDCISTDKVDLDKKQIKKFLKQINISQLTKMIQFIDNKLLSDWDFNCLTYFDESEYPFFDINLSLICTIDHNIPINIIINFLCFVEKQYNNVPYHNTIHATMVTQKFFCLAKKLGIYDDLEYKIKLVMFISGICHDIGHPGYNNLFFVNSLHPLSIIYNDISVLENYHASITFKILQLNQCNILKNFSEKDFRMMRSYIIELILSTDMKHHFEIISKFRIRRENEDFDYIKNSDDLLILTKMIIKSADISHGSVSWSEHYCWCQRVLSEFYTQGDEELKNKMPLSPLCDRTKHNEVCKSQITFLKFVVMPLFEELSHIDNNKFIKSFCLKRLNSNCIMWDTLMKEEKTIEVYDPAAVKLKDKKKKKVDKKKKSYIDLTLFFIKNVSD
T3 sequence (P51160 whole entry): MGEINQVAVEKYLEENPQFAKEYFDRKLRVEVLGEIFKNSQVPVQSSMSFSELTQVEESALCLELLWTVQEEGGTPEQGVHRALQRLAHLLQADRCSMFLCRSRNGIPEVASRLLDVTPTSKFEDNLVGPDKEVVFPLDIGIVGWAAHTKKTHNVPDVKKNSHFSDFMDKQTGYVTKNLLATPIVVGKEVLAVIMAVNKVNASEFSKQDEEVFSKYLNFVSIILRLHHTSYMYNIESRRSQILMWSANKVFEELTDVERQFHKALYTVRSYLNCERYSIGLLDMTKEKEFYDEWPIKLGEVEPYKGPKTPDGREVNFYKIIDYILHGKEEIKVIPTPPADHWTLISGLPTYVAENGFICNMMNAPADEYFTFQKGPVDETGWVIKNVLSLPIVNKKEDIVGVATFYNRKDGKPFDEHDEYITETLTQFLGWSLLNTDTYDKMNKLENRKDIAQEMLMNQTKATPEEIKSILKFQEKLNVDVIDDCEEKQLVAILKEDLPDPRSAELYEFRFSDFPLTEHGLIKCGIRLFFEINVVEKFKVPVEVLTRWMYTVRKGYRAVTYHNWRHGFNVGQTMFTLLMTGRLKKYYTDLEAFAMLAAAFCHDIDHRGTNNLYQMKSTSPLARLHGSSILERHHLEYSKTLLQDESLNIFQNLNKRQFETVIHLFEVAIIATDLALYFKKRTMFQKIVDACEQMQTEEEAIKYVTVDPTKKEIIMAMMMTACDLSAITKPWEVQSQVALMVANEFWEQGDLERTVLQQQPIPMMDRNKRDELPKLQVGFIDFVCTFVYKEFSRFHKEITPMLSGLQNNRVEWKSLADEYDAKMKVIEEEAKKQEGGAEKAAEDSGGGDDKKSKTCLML

Structure (SMILES)	IC50 (PDEβ) [nM]	% inhibition gametocyte viability at 15 μM [1] [%]	% inhibition of exflagellation at 2 μM [2] [%]	% inhibition of female gamete formation at 2 μM [3] [%]	also measured
CC(C)c1n[nH]c2c(=O)[nH]c(Cc3ccccc3)nc12 [BIPPO, 5-benzyl-3-isopropyl-1H-pyrazolo[4,3-d]pyrimidin-7(6H)-one]	9	–	–	–	Potency against recombinant human PDE9 (recombinant human PDE9): 30 nM; EC50 (P. falciparum ABS): 400 nM
CCc1c2nc(-c3cc(-c4ccccc4)cnc3OCC(C)C)[nH]c(=O)c2nn1CCOC [SAL-0010028]	–	57.1 ± 27.0	18.6 ± 15.8	6.9 ± 2.6	Selectivity against human PDE5 (human PDE5A1): 773 fold
CCCc1nn(C)c2c(=O)[nH]c(-c3cc(S(=O)(=O)N4CCN(C)CC4)ccc3OCC)nc12 [sildenafil]	> 10000	–	–	–	Selectivity (PDE5 over PDE6) (PDE6): < 10 fold; EC50 (P. falciparum 3D7): > 25 µM; IC50 against malaria parasites (malaria parasites): mid-to-high micromolar range
CCCCOc1ncc(Br)cc1-c1nc2c(CC)n(CCOC)nc2c(=O)[nH]1 [SAL-0010039]	–	0	0	20.7 ± 2.3	Selectivity against human PDE6 (human PDE6C): 338 fold
